tested on: AGS cells (KRAS^G12D); assay: Detection of cell proliferation in vitro by MTT/MTS method (cell activity experiment); format: cell-based; settings: AGS cells; MTT/MTS; 3 days of drug treatment; read-out: AGS IC50
In short: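 KRAS G12D AGS cells seeded at 1000 per well, compound added 24 h later, 0.5% final DMSO. Viability read after 3 days of treatment by MTT (solubilised in DMSO) or MTS, 4 h, absorbance 490 nm. IC50 from dose–response curves versus DMSO control.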

Row | SMILES | IC50 [nM]
1 | C#Cc1c(F)ccc2cc(O)cc(-c3ccc4c(N5C[C@H]6CC[C@@H](C5)[C@@H]6N)nc(OC[C@@]56CCCN5C[C@H](F)C6)nc4c3F)c12 [Example 128, 4-(4-((1R,5S,8R)-8-amino-3-azabicyclo [3.2.1]octan-3-yl)-8-fluoro-2-(((2R,7aS)-2-fluorotetrahydro-1H-pyrrolizin-7a(5H)-yl)methoxy)quinazolin-7-yl)-5-ethynyl-6-fluoronaphthalen-2-ol] | > 2500

same assay, conditions: Homo sapiens, AGS, 72 h, AGS cells; MTT/MTS; 3 days of drug treatment; read-out: AGS IC50

Row | SMILES | IC50 [nM]
2 | C#CC1CCc2cc(O)cc(-c3ncc4c(N5C[C@H]6CC[C@@H](C5)N6)nc(OC[C@@]56CCCN5C[C@H](F)C6)nc4c3F)c21 (stereo partly drawn) [Example 247, 7-(4-((1R,5S)-3,8-diazabicyclo[3.2.1]octan-3-yl)-8-fluoro-2-(((2R,7aS)-2-fluorotetrahydro-1H-pyrrolizin-7a(5H)-yl)methoxy)pyrido[4,3-d]pyrimidin-7-yl)-1-ethynyl-2,3-dihydro-1H-inden-5-ol] | 6.1
3 | C#Cc1cc2c(N3C[C@H]4CC[C@@H](C3)N4)nc(OC[C@@]34CCCN3C[C@H](F)C4)nc2c(F)c1-c1cc(O)cc2c1C(CC)CC2 (stereo partly drawn) [Example 371, 7-(4-((1R,5S)-3,8-diazabicyclo[3.2.1]octan-3-yl)-6-ethynyl-8-fluoro-2-(((2R,7aS)-2-fluorotetrahydro-1H-pyrrolizin-7a(5H)-yl)methoxy)quinazolin-7-yl)-1-ethyl-2,3-dihydro-1H-inden-5-ol] | 85
4 | C#Cc1c(F)ccc2cc(O)cc(-c3ncc4c(-c5cn(C(=O)CO)cn5)nc(OC[C@@]56CCCN5C[C@H](F)C6)nc4c3F)c12 [Example 88, 1-(4-(7-(8-ethynyl-7-fluoro-3-hydroxynaphthalen-1-yl)-8-fluoro-2-(((2R, 7aS)-2-fluorotetrahydro-1H-pyrrolizin-7a(5H)-yl)methoxy)pyrido[4,3-d]pyrimidin-4-yl)-1H-imidazol-1-yl)-2-hydroxyethan-1-one] | > 10000
5 | C[C@H]1CCCc2cc(O)cc(-c3ncc4c(N5CC6CCC(C5)N6)nc(OC[C@@]56CCCN5C[C@H](F)C6)nc4c3F)c21 (single isomer, unassigned) [Example 226, (S)-4-(4-((1R,5S)-3,8-diazabicyclo[3.2.1]octan-3-yl)-8-fluoro-2-(((2R,7aS)-2-fluorotetrahydro-1H-pyrrolizin-7a(5H)-yl)methoxy)pyrido[4,3-d]pyrimidin-7-yl)-5-methyl-5,6,7,8-tetrahydronaphthalen-2-ol or (R)-4-(4-((1R,5S)-3,8-diazabicyclo[3.2.1]octan-3-yl)-8-fluoro-2-(((2R,7aS)-2-fluorotetrahydro-1H-pyrrolizin-7a(5H)-yl)methoxy)pyrido[4,3-d]pyrimidin-7-yl)-5-methyl-5,6,7,8-tetrahydronaphthalen-2-ol] | 2.4
6 | Cc1nccc2cc(O)cc(-c3ncc4c(N5C[C@H]6CC[C@@H](C5)N6)nc(OC[C@@]56CCCN5C[C@H](F)C6)nc4c3F)c12 [Example 343, 8-(4-((1R,5S)-3,8-diazabicyclo[3.2.1]octan-3-yl)-8-fluoro-2-(((2R,7aS)-2-fluorotetrahydro-1H-pyrrolizin-7a(5H)-yl)methoxy)pyrido[4,3-d]pyrimidin-7-yl)-1-methylisoquinolin-6-ol] | 17
7 | C#Cc1cc2c(N3C[C@H]4CC[C@@H](C3)N4)nc(OC[C@@]34CCCN3C[C@H](F)C4)nc2c(F)c1-c1cc(O)cc2ccc(F)c(C#C)c12 [Example 373, 4-(4-((1R,5S)-3,8-diazabicyclo[3.2.1]octan-3-yl)-6-ethynyl-8-fluoro-2-(((2R,7aS)-2-fluorotetrahydro-1H-pyrrolizin-7a(5H)-yl)methoxy)quinazolin-7-yl)-5-ethynyl-6-fluoronaphthalen-2-ol] | 30
8 | Oc1cc2c(c(-c3ncc4c(N5C[C@H]6CC[C@@H](C5)N6)nc(OC[C@@]56CCCN5C[C@H](F)C6)nc4c3F)c1)C1(CCC2)CC1 [Example 256, 8′-(4-((1R,5S)-3,8-diazabicyclo[3.2.1]octan-3-yl)-8-fluoro-2-(((2R,7aS)-2-fluorotetrahydro-1H-pyrrolizin-7a(5H)-yl)methoxy)pyrido[4,3-d]pyrimidin-7-yl)-3′,4′-dihydro-2′H-spiro[cyclopropane-1,1′-naphthalen]-6′-ol] | 303
9 | C=C1CCCc2cc(O)cc(-c3ncc4c(N5C[C@H]6CC[C@@H](C5)N6)nc(OC[C@@]56CCCN5C[C@H](F)C6)nc4c3F)c21 [Example 253, 4-(4-((1R,5S)-3,8-diazabicyclo[3.2.1]octan-3-yl)-8-fluoro-2-(((2R,7aS)-2-fluorotetrahydro-1H-pyrrolizin-7a(5H)-yl)methoxy)pyrido[4,3-d]pyrimidin-7-yl)-5-methylene-5,6,7,8-tetrahydronaphthalen-2-ol] | 42
10 | C#Cc1c(F)ccc2cc(O)cc(-c3ccc4c(N5C[C@H]6CC[C@@H](C5)N6)c(C(F)(F)F)c(OC[C@@]56CCCN5C[C@H](F)C6)nc4c3)c12 [Example 183, 4-(4-((1R,5S)-3,8-diazabicyclo[3.2.1]octan-3-yl)-2-(((2R,7aS)-2-fluorotetrahydro-1H-pyrrolizin-7a(5H)-yl)methoxy)-3-(trifluoromethyl)quinolin-7-yl)-5-ethynyl-6-fluoronaphthalen-2-ol] | > 2500
11 | C#Cc1cccc2cc(O)cc(-c3ccc4c(N5CCC6(CC5)CO[C@@H](C)[C@H]6N)nc(OC[C@@]56CCCN5C[C@H](F)C6)nc4c3F)c12 [Example 115, 4-(4-((3S,4S)-4-amino-3-methyl-2-oxa-8-azaspiro[4.5]decan-8-yl)-8-fluoro-2-(((2R, 7aS)-2-fluorotetrahydro-1H-pyrrolizin-7a(5H)-yl)methoxy)quinazolin-7-yl)-5-ethynylnaphthalen-2-ol] | > 2500
12 | Oc1ccc2ccccc2c1C#Cc1ccc2c(N3C[C@H]4CC[C@@H](C3)N4)nc(OC[C@@]34CCCN3C[C@H](F)C4)nc2c1F [Example 365, 1-((4-((1R,5S)-3,8-diazabicyclo[3.2.1]octan-3-yl)-8-fluoro-2-(((2R,7aS)-2-fluorotetrahydro-1H-pyrrolizin-7a(5H)-yl)methoxy)quinazolin-7-yl)ethynyl)naphthalen-2-ol] | 3640
13 | C#Cc1c(F)ccc2cc(O)cc(C3=C(F)c4nc(OC[C@@]56CCCN5C[C@H](F)C6)nc(N5C[C@H]6CC[C@@H](C5)N6)c4C4=NCCN43)c12 [Example 402, 4-(10-((1R,5S)-3,8-diazabicyclo[3.2.1]octan-3-yl)-6-fluoro-8-(((2R,7aS)-2-fluorotetrahydro-1H-pyrrolizin-7a(5H)-yl)methoxy)-2,3-dihydroimidazo[1′,2′:1,2]pyrido[4,3-d]pyrimidin-5-yl)-5-ethynyl-6-fluoronaphthalen-2-ol] | 56
14 | C#Cc1c(F)ccc2cc(N)nc(-c3ncc4c(N5C[C@H]6CC[C@@H](C5)N6)nc(OC[C@@]56CCCN5C[C@H](F)C6)nc4c3F)c12 [Example 40, 1-(4-((1R,5S)-3,8-diazabicyclo[3.2.1]octan-3-yl)-8-fluoro-2-(((2R,7aS)-2-fluorotetrahydro-1H-pyrrolizin-7a(5H)-yl)methoxy)pyrido[4,3-d]pyrimidin-7-yl)-8-ethynyl-7-fluoroisoquinolin-3-amine] | > 2500
15 | Oc1cc(-c2ccc3c(N4C[C@H]5CC[C@@H](C4)N5)nc(OCC4(CN5CCCC5)CC4)nc3c2F)c2c(F)cccc2c1 [Example 102, 4-(4-((1R,5S)-3,8-diazabicyclo[3.2.1]octan-3-yl)-8-fluoro-2-((1-(pyrrolidin-1-ylmethyl)cyclopropyl)methoxy)quinazolin-7-yl)-5-fluoronaphthalen-2-ol] | 33
16 | C#Cc1c(F)ccc2cc(O)cc(-c3c4c(c5c(N6C[C@H]7CC[C@@H](C6)N7)nc(OC[C@@]67CCCN6C[C@H](F)C7)nc5c3F)OCO4)c12 [Example 393, 4-(9-((1R,5S)-3,8-diazabicyclo[3.2.1]octan-3-yl)-5-fluoro-7-(((2R,7aS)-2-fluorotetrahydro-1H-pyrrolizin-7a(5H)-yl)methoxy)-[1,3]dioxolo[4,5-f]quinazolin-4-yl)-5-ethynyl-6-fluoronaphthalen-2-ol] | 70
17 | C#Cc1c(F)ccc2cc(O)cc(-c3ccc4c(N5CC(C)(NC)C5)nc(OC[C@@]56CCCN5C[C@H](F)C6)nc4c3F)c12 [Example 218, 5-ethynyl-6-fluoro-4-(8-fluoro-2-(((2R,7aS)-2-fluorotetrahydro-1H-pyrrolizin-7a(5H)-yl)methoxy)-4-(3-methyl-3-(methylamino)azetidin-1-yl)quinazolin-7-yl)naphthalen-2-ol] | 980
18 | CSc1nccc2cc(O)cc(-c3ncc4c(N5C[C@H]6CC[C@@H](C5)N6)nc(OC[C@@]56CCCN5C[C@H](F)C6)nc4c3F)c12 [Example 341, 8-(4-((1R,5S)-3,8-diazabicyclo[3.2.1]octan-3-yl)-8-fluoro-2-(((2R,7aS)-2-fluorotetrahydro-1H-pyrrolizin-7a(5H)-yl)methoxy)pyrido[4,3-d]pyrimidin-7-yl)-1-(methylthio)isoquinolin-6-ol] | 25
19 | CCc1c(F)ccc2cc(O)cc(-c3ccc4c(N5C[C@H]6CC[C@@H](C5)N6)nc(OC[C@@]56CCCN5C[C@H](F)C6)nc4n3)c12 [Example 141, 4-(4-((1R,5S)-3,8-diazabicyclo[3.2.1]octan-3-yl)-2-(((2R,7aS)-2-fluorotetrahydro-1H-pyrrolizin-7a(5H)-yl)methoxy)pyrido[2,3-d]pyrimidin-7-yl)-5-ethyl-6-fluoronaphthalen-2-ol] | > 2500

same assay, conditions: Homo sapiens, AGS, 72 h, read-out: AGS IC50

Row | SMILES | IC50 [nM]
20 | CCC1CCc2cc(O)cc(-c3ncc4c(N5C[C@H]6CC[C@@H](C5)N6)nc(OC[C@@]56CCCN5C[C@H](F)C6)nc4c3F)c21 (stereo partly drawn) [Example 220, 7-(4-((1R,5S)-3,8-diazabicyclo[3.2.1]octan-3-yl)-8-fluoro-2-(((2R,7aS)-2-fluorotetrahydro-1H-pyrrolizin-7a(5H)-yl)methoxy)pyrido[4,3-d]pyrimidin-7-yl)-1-ethyl-2,3-dihydro-1H-inden-5-ol] | 5
